# Test system: not given
# Assay: not given
# Conditions: phase II trial; altered behavior, delusion, hallucinations, extreme emotions, excited motor activity, incoherent speech; cited from earlier work
row,SMILES,activity on positive symptoms of schizophrenia
1,"CC(=O)N(C)C1(c2ccccc2)CCN(CCC[C@]2(c3ccc(Cl)c(Cl)c3)CCCN(C(=O)c3ccccc3)C2)CC1 [SR 142,801, Osanetant]",active

# Same assay, conditions: phase II trial; depression, anhedonia, social isolation, memory and attention deficits; cited from earlier work
row,SMILES,activity in the treatment of negative symptoms of schizophrenia
1,"CC(=O)N(C)C1(c2ccccc2)CCN(CCC[C@]2(c3ccc(Cl)c(Cl)c3)CCCN(C(=O)c3ccccc3)C2)CC1 [SR 142,801, Osanetant]",inactive

# Target: T1, human NK3 receptor (Homo sapiens, UniProt P29371)
# T1 construct: expressed in transfected cells; host or cells: HEK293 cells (transient expression), membranes
# T1 sequence (P29371 1-465): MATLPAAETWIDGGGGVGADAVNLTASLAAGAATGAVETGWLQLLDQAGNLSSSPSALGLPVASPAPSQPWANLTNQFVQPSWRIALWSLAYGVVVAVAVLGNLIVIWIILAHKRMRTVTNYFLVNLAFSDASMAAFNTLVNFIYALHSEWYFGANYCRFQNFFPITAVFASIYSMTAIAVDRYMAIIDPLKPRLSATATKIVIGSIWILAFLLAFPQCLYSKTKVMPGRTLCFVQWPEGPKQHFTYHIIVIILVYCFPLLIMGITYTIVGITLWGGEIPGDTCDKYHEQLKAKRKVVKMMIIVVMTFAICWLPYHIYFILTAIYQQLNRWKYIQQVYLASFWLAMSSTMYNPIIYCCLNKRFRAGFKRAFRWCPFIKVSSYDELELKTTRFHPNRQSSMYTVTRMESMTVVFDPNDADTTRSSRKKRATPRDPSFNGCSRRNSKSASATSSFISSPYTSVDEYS
# Assay: [3H]SR142801 competition binding assay
# Conditions: membrane from HEK293 cells transiently expressing recombinant human NK3 receptor; radioligand [3H]SR142801; Ki from IC50 by Cheng-Prussoff equation
# Experimental: [^3H]SR142801 Competition Binding Assay
# hNK3 receptor binding experiment were performed using [^3H]SR142801 (Catalog No. TRK1035, specific activity: 74.0 Ci/mmol, Amersham, GE Healthcare UK limited, Buckinghamshire, UK) and membrane isolated from HEK293 cells transiently expressing recombinant human NK3 receptor. After thawing, the membrane homogenates were centrifuged at 48,000×g for 10 min at 4° C., the pellets were resuspended in the 50 mM Tris-HCl, 4 mM MnCl2, 1 μM phosphoramidon, 0.1% BSA binding buffer at pH 7.4 to a final assay concentration of 5 μg protein/well. […] At the end of the incubation, membranes were filtered onto unitfilter (96-well white microplate with bonded GF/C filter preincubated 1 h in 0.3% PEI+0.3% BSA, Packard BioScience, Meriden, Conn.) with a Filtermate 196 harvester (Packard BioScience) and washed 4 times with ice-cold 50 mM Tris-HCl, pH 7.4 buffer. Nonspecific binding was measured in the presence of 10 μM SB222200 for both radioligands. The radioactivity on the filter was counted (5 min) on a Packard Top-count microplate scintillation counter with quenching correction after addition of 45 μl of microscint 40 (Canberra Packard S. A., Zürich, Switzerland) and shaking for 1 h. Inhibition curves were fitted according to the Hill equation: y=100/(1+(x/IC50)^nH), where nH=slope factor using Excel-fit 4 software (Microsoft). IC50 values were derived from the inhibition curve and the affinity constant (Ki) values were calculated using the Cheng-Prussoff equation Ki=IC50/(1+[L]/KD) where [L] is the concentration of radioligand and KD is its dissociation constant at the receptor, derived from the saturation isotherm. All experiments were performed in duplicate and the mean±standard error (SEM) of the individual Ki values was calculated.
row,SMILES,Ki
1,"CS(=O)(=O)N1CCN(C(=O)N2C[C@H](CNc3ccc(C(F)(F)F)cn3)[C@@H](c3ccc(Cl)c(Cl)c3)C2)CC1 [Example 13, (3S,4S)-{3-(3,4-Dichloro-phenyl)-4-[(5-trifluoromethyl-pyridin-2-ylamino)-methyl]-pyrrolidin-1-yl}-(4-methanesulfonyl-piperazin-1-yl)-methanone]",6.6 nM
2,"CS(=O)(=O)N1CCN(C(=O)N2C[C@@H](CNc3ccc(C(F)(F)F)cn3)[C@H](c3ccc(Cl)c(Cl)c3)C2)CC1 [Example 14, (3R,4R)-{3-(3,4-Dichloro-phenyl)-4-[(5-trifluoromethyl-pyridin-2-ylamino)-methyl]-pyrrolidin-1-yl}-(4-methanesulfonyl-piperazin-1-yl)-methanone]",92.4 nM
3,"CN(C[C@H]1CN(C(=O)C2CCN(C(=O)C3(C)CC3)CC2)C[C@@H]1c1ccc(Cl)cc1)c1ccc(C#N)cn1 [Example 51, 6-({(3S,4S)-4-(4-Chloro-phenyl)-1-[1-(1-methyl-cyclopropanecarbonyl)-piperidine-4-carbonyl]-pyrrolidin-3-ylmethyl}-methyl-amino)-nicotinonitrile]",69.9 nM
4,"CN(C[C@H]1CN(C(=O)C2CCN(C(=O)C3(C)CC3)CC2)C[C@@H]1c1ccc(Cl)cc1)c1ccc(C(F)(F)F)cn1 [Example 53, [4-((3S,4S)-3-(4-Chloro-phenyl)-4-{[methyl-(5-trifluoromethyl-pyridin-2-yl)-amino]-methyl}-pyrrolidine-1-carbonyl)-piperidin-1-yl]-(1-methyl-cyclopropyl)-methanone]",85.6 nM
5,"CN(C[C@H]1CN(C(=O)C2CCN(C(=O)C3(C)CC3)CC2)C[C@@H]1c1ccc(Cl)cc1)c1ncc(C(F)(F)F)cn1 [Example 55, ((3S,4S)-3-(4-Chloro-phenyl)-4-{[methyl-(5-trifluoromethyl-pyrimidin-2-yl)-amino]-methyl}-pyrrolidin-1-yl)-[1-(1-methyl-cyclopropanecarbonyl)-piperidin-4-yl]-methanone]",42.9 nM
6,"CC1(C(=O)N2CCC(C(=O)N3C[C@H](CNc4ncc(C(F)(F)F)cn4)[C@@H](c4ccc(Cl)c(Cl)c4)C3)CC2)CC1 [Example 57, {(3S,4S)-3-(3,4-Dichloro-phenyl)-4-[(5-trifluoromethyl-pyrimidin-2-ylamino)-methyl]-pyrrolidin-1-yl}-[1-(1-methyl-cyclopropanecarbonyl)-piperidin-4-yl]-methanone]",1.8 nM
7,"Cc1cc(C(=O)N2C[C@H](CNc3ncc(C(F)(F)F)cn3)[C@@H](c3ccc(Cl)c(Cl)c3)C2)cnn1 [Example 58, {(3S,4S)-3-(3,4-Dichloro-phenyl)-4-[(5-trifluoromethyl-pyrimidin-2-ylamino)-methyl]-pyrrolidin-1-yl}-(6-methyl-pyridazin-4-yl)-methanone]",1.2 nM
8,"CN(C[C@H]1CN(C(=O)C2CCN(C(=O)C3(C)CC3)CC2)C[C@@H]1c1ccc(Cl)c(Cl)c1)c1ncc(C(F)(F)F)cn1 [Example 59, ((3S,4S)-3-(3,4-Dichloro-phenyl)-4-{[methyl-(5-trifluoromethyl-pyrimidin-2-yl)-amino]-methyl}-pyrrolidin-1-yl)-[1-(1-methyl-cyclopropanecarbonyl)-piperidin-4-yl]-methanone]",2.3 nM
9,"Cc1cc(C(=O)N2C[C@H](CN(C)c3ncc(C(F)(F)F)cn3)[C@@H](c3ccc(Cl)c(Cl)c3)C2)cnn1 [Example 60, ((3S,4S)-3-(3,4-Dichloro-phenyl)-4-{[methyl-(5-trifluoromethyl-pyrimidin-2-yl)-amino]-methyl}-pyrrolidin-1-yl)-(6-methyl-pyridazin-4-yl)-methanone]",15.8 nM
10,"CN(C[C@H]1CN(C(=O)C2CCN(C(=O)C3(C)CC3)CC2)C[C@@H]1c1ccc(Cl)c(Cl)c1)c1ccc(C(F)(F)F)cn1 [Example 62, [4-((3S,4S)-3-(3,4-Dichloro-phenyl)-4-{[methyl-(5-trifluoromethyl-pyridin-2-yl)-amino]-methyl}-pyrrolidine-1-carbonyl)-piperidin-1-yl]-(1-methyl-cyclopropyl)-methanone]",8.4 nM
11,"CN(C[C@H]1CN(C(=O)C2CCN(C(=O)C3(C)CC3)CC2)C[C@@H]1c1ccc(Cl)c(Cl)c1)c1ccc(C#N)cn1 [Example 64, 6-({(3S,4S)-4-(3,4-Dichloro-phenyl)-1-[1-(1-methyl-cyclopropanecarbonyl)-piperidine-4-carbonyl]-pyrrolidin-3-ylmethyl}-methyl-amino)-nicotinonitrile]",31.8 nM
12,"CN(C[C@H]1CN(C(=O)C2CCN(C(=O)C3(C)CC3)CC2)C[C@@H]1c1ccc(Cl)c(Cl)c1)c1ccc(Cl)cn1 [Example 66, {4-[(3S,4S)-3-{[(5-Chloro-pyridin-2-yl)-methyl-amino]-methyl}-4-(3,4-dichloro-phenyl)-pyrrolidine-1-carbonyl]-piperidin-1-yl}-(1-methyl-cyclopropyl)-methanone]",47 nM
